Series [1] has as its system 4T1 cells. The series can be described thus: RNA sequencing of 4T1 cells in vitro (Example 4). The format is cell-based, mouse. As to conditions: without supplemental Gas6.
Another series deals with IFN related genes (ISG). The series can be described thus: qRTPCR of IFN related genes in Yumm1.7 tumors after sacrifice (Example 3). The series is classed as in vivo, C57Bl6 mice. As to conditions: 35 IFN related genes tested. Here is the method: RNA was extracted from snap frozen tumors using the RNEasy Microarray Tissue Mini kit from Qiagen following the manufacturer's instructions. As tumors contained Doxorubicin and powderizing them could expose personnel to harmful substances, the RNA was extracted in a closed system using the GentleMACS dissociator and M Tubes. Purity and concentration of RNA was measured using Nanodrop. cDNA was synthesized from RNA using the RT^2 First Strand kit (Qiagen) according to the manufacturer's instructions. cDNA was mixed with SYBR Green Mastermix (Qiagen) and loaded into PCR plates with different probes against interferon related genes (listed in table 14). The plates were analyzed using Light Cycler 480 (Roche) and data were analyzed using Graph Pad (Prism).
Tumors from 4 animals treated either with Vehicle (group A), bemcentinib (Group B), Doxorubicin (group F) or bemcentinib+Doxorubicin (group H) were analyzed. Data are presented as fold changes compared to Vehicle treated mice. 35 IFN related genes (Table 14) were tested by RT PCR. Fold change was obtained compared to the control group (A). […]
A molecular mechanism focused study will be performed later; here samples were collected after sacrifice, meaning many days after treatment for some of the groups. The expression of 35 ISG as well, immune checkpoint related genes EMT related genes, Axl and Gas6 were analyzed by qRTPCR (Table 14).

The subject of a further series is 43 mouse cytokines. The series can be described thus: Plasma cytokines, ProcartaPlex Multiplex Immunoassay (Luminex) (Example 2). The format is in vivo, Balb/c mice. As to conditions: 1 mg/kg doxorubicin i.t., 72 h post injection, 43 measured.
In series [2] the test system is 4T1 mammary carcinoma cells. Description: Metastasis, tumor weight and spleen weight post sacrifice, 4T1 model (Example 1). The series is classed as in vivo, BALB/c mice. As to conditions: for Lung macro metastasis: count per animal (A1-A15) after sacrifice, 10+ = massive lung metastasis; for Average spleen weight / Average tumor weight: post sacrifice, average of each group. The protocol:
Spleens were weighed and inspected for macroscopic metastasis and cut in half along the long axis. Half of the spleen was snap frozen, with the other half fixed in 4% formalin for 24 hours at room temperature and stored in 70% ethanol at 4° C. until embedding in paraffin.
Livers were inspected for macroscopic metastasis and fixed in 4% formalin for 24 hours at room temperature and stored in 70% ethanol at 4° C. until embedding in paraffin.
Lungs were inspected for macroscopic metastasis and fixed in 4% formalin for 24 hours at room temperature and stored in 70% ethanol at 4° C. until embedding in paraffin.
Tumors were weighed and cut in half along the long axis, one half was snap frozen in liquid nitrogen in 2 cryotubes per tumor, while the other half was fixed in 4% formalin for 24 hours at room temperature and stored in 70% ethanol at 4° C. until embedding in paraffin.

Another series relates to Type I IFN related genes. Description: RT2 Profiler PCR Array Mouse Type I Interferon Response on 4T1 tumors (Example 1 mechanistic study). The series is classed as in vivo, BALB/c mice. Conditions: 4T1 tumors day 19; one animal per group compared to one of the controls. Here is the method: RNA was extracted from snap frozen tumors using the RNEasy Microarray Tissue Mini kit from Qiagen following the manufacturer's instructions. As tumors contained Doxorubicin and powderizing them could expose personnel to harmful substances, the RNA was extracted in a closed system using the GentleMACS dissociator and M Tubes. Purity and concentration of RNA was measured using Nanodrop. cDNA was synthesized from RNA using the RT2 First Strand kit (Qiagen) according to the manufacturer's instructions. cDNA was mixed with RT2 SYBR Green Mastermix (Qiagen) and loaded into RT^2 Profiler™ PCR Array Mouse Type I Interferon Response, to analyze the expression of the 84 genes listed in Table 2. The plates were analysed using a Light Cycler 480 (Roche) and data were analysed using the Qiagen Data Analysis Centre and Graph Pad (Prism).
16 animals were used in the mechanistic study and were sacrificed day 19 post implantation, 3 days after Doxorubicin injection. […] The 4 animals from group A (no treatment) were used as controls. The fold changes of 4 animals of group B (Bemcentinib), group F (Doxorubicin) and group H (Bemcentinib+Doxorubicin) are expressed as compared to the control animals (group A).

The test system of series [3] is LL2 cells. Description: Resazurin viability assay of LL2 cells (Example 4). The format is cell-based, mouse. The protocol:
(§1) 4T1 cells (ATCC, CRL-2539) were cultured in RPMI-1640 (Sigma, Cat. #R8758) supplemented with 10% fetal bovine serum (FBS), L-glutamine (4 mM), streptomycin (5 μg/ml) and penicillin (5 U/ml). […] Lewis lung carcinoma cells LL/2 (LLC1) (ATCC, CRL-1642™) were cultured in Dulbecco's Modified Eagle's Medium ATCC® 30-2002™ (4 mM L-glutamine, 4500 mg/L glucose, 1 mM sodium pyruvate, and 1500 mg/L sodium bicarbonate).
(§2) The IC50 of the different drugs were calculated by resazurin viability assay. […] The cells were treated for 48 hours.

Series [4] concerns LL2 cells. Description: qRTPCR of IFN related genes in Lewis lung carcinoma (LL2) cells in vitro (Example 4). Conditions: Doxorubicin 50 nM, 48 hours. The format is cell-based, mouse. Here is the method: as §1
RNA was extracted from snap frozen tumors using the RNEasy Microarray Tissue Mini kit from Qiagen following the manufacturer's instructions. As tumors contained Doxorubicin and powderizing them could expose personnel to harmful substances, the RNA was extracted in a closed system using the GentleMACS dissociator and M Tubes. Purity and concentration of RNA was measured using Nanodrop. RT^2 Profiler™ PCR Array. cDNA was synthesized from RNA using the RT^2 First Strand kit (Qiagen) according to the manufacturer's instructions. cDNA was mixed with RT^2 SYBR Green Mastermix (Qiagen) and loaded into RT^2 Profiler™ PCR Array Mouse Type I Interferon Response or RT^2 Profiler™ PCR Array Mouse Epithelial to Mesenchymal Transition (EMT), analyzing the expression of the genes listed in Table 17. The plates were analyzed using Light Cycler 480 (Roche) and data were analyzed using the Qiagen Data Analysis Centre and Graph Pad (Prism).
Chemotherapeutic agents commonly used to treat lung cancer patients were evaluated for effects on the IFN response. Cisplatin, navelbine and docetaxel were tested in vitro in combination with bemcentinib.
as §2

Series [5] deals with 4T1 cells. Description: qRTPCR of IFN related genes in 4T1 cells in vitro (Example 4). The format is cell-based, mouse. Conditions: doxorubicin, 42 ISG measured.
Series [6] relates to 4T1 mammary carcinoma cells. The series can be described thus: Tumor growth, 4T1 model (Example 2). Conditions: short in vivo study, single i.t. injection day 15. On the set-up: species or system Balb/c mice.
Procedure: Tumor growth was measured with a digital handheld caliper twice weekly from emergence of tumor and until the day of euthanasia
For series [7] the following is noted: mouse, in vivo. The source says: Animals were weighed prior to tumor cell injection, prior to daily dosing and prior to euthanasia.

Each structure is given as a SMILES string. Where “and” joins values, the source holds several entries; their conditions need not be identical. Equal entries are not always repeated. Where two headings read alike, the source gives them in different places.

Procedure for 43 mouse cytokines: The manufacturer user guide was followed. The samples were analyzed by (MAGPIX) and the results were obtained as concentration in pg/ml of mouse plasma. At least 3 samples per group, 4 for many, were analyzed.

For `Nc1nc(Nc2ccc3c(c2)CC[C@@H](N2CCCC2)CC3)nn1-c1cc2c(nn1)-c1ccccc1CCC2` [Bemcentinib, bemcentinib], in the series with 4T1 cells [1], the “IFN related gene expression by RNA sequencing” value is listed as “limited IFN type I response”. Also, the “ISG significantly upregulated compared to control (number)” value in the series with IFN related genes (ISG) came to 4. Further, in the series on 43 mouse cytokines, the “Cytokines with a significant decrease of concentration (number)” value stood at 4. The Lung macro metastasis in series [2] (listed as Bem + PBS + Igg) was 6 and 10+ (2×) and 5 (3×) and 0 and 4 and 2 and 10. In series [2], this compound came in with an Average spleen weight of 0.9333 g and an Average tumor weight of 1.556 g. Moreover, in the series with Type I IFN related genes, the “Expression of IFN type I related genes” value is “only a few upregulated genes”.

As to `COc1cccc2c1C(=O)c1c(O)c3c(c(O)c1C2=O)C[C@@](O)(C(=O)CO)C[C@@H]3O[C@H]1C[C@H](N)[C@H](O)[C@H](C)O1` [Doxorubicin, doxorubicin], the IC50 with LL2 cells [3] (Mus musculus, LL/2, read-out: IC50 without bem) stood at 178 nM; in the series on LL2 cells [3] (in the presence of bemcentinib, read-out: IC50 with bem), 70.3 nM. Further, the results for the “ISG significantly upregulated compared to control (number)” value in the series on IFN related genes (ISG) and in the series on LL2 cells [4] were “No gene” and “limited IFN response”, respectively. Also, the Lung macro metastasis in series [2] (listed as Vehicle + Dox + Igg) is 10+ (2×) and 6 and 3 and 0 (2×) and 4 (2×) and 5. For the same compound, the Average spleen weight in series [2] stood at 1.16 g. For the same compound, the Average tumor weight in series [2] is given as 1.51 g. In addition, in the series with Type I IFN related genes, the “Expression of IFN type I related genes” value is “increase of expression”. In addition, in the series on 4T1 cells [5], the “ISG with significant mRNA fold change upregulation compared to control (number)” value is listed as 9. Besides, the Tumor growth entry in [6] was “no effect”. Further, in series [7], the “Effect on the body weight of mice” value is on record as “limited effect”.

These data come from patent US20230372337A1, “Combination Therapy Comprising an AXL Inhibitor” (BERGENBIO ASA, priority 2020, published 2023).
